Experimental data from patent publication US9340590B2 (priority 2011, dated 2016).
Read-outs that look alike come from different tables or passages of the source. Positions of bridges follow the written chain, without caps; N, C: chain ends. Non-standard residues stand in square brackets, D forms with d. Residues, ends and D or L forms follow the SMILES beside them. *: point of attachment. hArg = N=C(N)NCCCC[C@H](N)C(=O)O; Pent4ynoyl = C#CCCC(=O)*; Abu = CC[C@H](N)C(=O)O

Legend:
Assay in all cases: cell-based
hNav1.5 = hNav1.5 (Homo sapiens, UniProt Q14524); settings: IonWorks Quattro, read-out: IWQ Use Nav1.5
hNav1.3 = hNav1.3 (Homo sapiens, UniProt Q9NY46); settings: IonWorks Quattro, read-out: IWQ Use Nav1.3
hNav1.7 = hNav1.7 (Homo sapiens, UniProt Q15858); type: cell-based; settings: IonWorks Quattro
[1] = use-dependent block, hNav1.7, read-out: IWQ Use Nav1.7

Sequence of hNav1.7 (Q15858 whole entry, looked up): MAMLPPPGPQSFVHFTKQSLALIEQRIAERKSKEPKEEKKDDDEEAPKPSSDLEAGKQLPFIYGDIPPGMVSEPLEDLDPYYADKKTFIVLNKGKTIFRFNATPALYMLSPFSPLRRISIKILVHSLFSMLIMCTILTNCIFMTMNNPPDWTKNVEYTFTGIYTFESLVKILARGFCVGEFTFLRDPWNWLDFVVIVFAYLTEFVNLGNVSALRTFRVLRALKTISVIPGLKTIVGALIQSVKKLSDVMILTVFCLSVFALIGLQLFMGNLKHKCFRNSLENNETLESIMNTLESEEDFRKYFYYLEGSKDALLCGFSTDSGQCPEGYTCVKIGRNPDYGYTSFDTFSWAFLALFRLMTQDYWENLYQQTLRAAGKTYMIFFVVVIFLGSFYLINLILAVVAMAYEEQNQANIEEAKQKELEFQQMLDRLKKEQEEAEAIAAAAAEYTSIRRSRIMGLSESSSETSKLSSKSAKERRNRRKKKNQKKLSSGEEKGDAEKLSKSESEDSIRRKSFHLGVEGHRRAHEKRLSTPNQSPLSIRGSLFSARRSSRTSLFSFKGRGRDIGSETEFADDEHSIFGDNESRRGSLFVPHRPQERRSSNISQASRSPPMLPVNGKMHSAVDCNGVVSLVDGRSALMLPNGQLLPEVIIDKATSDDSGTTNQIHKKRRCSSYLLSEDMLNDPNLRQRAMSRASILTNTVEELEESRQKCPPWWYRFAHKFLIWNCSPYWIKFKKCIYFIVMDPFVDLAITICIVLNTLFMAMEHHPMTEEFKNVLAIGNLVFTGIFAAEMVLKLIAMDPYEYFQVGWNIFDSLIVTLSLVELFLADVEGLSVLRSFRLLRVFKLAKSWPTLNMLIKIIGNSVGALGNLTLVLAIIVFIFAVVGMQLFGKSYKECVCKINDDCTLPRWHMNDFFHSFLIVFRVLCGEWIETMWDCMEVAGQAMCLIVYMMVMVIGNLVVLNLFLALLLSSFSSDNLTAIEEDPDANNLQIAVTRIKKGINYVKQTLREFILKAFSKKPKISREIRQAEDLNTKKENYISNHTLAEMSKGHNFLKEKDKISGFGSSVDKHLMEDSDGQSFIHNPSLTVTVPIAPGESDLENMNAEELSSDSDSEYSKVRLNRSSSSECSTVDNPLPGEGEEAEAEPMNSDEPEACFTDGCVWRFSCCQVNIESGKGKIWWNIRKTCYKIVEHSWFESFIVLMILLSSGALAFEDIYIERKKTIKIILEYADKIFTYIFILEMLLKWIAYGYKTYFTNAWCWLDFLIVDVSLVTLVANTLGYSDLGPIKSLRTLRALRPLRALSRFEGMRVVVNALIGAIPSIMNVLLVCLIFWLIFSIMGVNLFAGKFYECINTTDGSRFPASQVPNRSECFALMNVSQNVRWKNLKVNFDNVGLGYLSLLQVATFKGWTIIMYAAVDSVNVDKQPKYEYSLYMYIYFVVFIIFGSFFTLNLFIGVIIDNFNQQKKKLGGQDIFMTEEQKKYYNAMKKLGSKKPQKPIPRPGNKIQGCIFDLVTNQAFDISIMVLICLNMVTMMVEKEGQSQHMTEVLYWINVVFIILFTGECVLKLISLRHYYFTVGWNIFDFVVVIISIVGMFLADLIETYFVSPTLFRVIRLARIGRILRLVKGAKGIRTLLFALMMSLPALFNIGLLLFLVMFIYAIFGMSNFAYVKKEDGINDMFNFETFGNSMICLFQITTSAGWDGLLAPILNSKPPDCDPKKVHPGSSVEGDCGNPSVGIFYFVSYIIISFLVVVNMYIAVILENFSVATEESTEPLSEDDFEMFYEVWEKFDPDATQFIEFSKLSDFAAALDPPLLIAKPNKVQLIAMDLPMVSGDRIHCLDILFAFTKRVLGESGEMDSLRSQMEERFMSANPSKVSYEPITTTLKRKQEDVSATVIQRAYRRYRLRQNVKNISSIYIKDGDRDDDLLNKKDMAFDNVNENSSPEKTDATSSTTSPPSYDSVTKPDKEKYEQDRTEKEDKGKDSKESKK
Sequence of hNav1.3 (Q9NY46 whole entry, looked up): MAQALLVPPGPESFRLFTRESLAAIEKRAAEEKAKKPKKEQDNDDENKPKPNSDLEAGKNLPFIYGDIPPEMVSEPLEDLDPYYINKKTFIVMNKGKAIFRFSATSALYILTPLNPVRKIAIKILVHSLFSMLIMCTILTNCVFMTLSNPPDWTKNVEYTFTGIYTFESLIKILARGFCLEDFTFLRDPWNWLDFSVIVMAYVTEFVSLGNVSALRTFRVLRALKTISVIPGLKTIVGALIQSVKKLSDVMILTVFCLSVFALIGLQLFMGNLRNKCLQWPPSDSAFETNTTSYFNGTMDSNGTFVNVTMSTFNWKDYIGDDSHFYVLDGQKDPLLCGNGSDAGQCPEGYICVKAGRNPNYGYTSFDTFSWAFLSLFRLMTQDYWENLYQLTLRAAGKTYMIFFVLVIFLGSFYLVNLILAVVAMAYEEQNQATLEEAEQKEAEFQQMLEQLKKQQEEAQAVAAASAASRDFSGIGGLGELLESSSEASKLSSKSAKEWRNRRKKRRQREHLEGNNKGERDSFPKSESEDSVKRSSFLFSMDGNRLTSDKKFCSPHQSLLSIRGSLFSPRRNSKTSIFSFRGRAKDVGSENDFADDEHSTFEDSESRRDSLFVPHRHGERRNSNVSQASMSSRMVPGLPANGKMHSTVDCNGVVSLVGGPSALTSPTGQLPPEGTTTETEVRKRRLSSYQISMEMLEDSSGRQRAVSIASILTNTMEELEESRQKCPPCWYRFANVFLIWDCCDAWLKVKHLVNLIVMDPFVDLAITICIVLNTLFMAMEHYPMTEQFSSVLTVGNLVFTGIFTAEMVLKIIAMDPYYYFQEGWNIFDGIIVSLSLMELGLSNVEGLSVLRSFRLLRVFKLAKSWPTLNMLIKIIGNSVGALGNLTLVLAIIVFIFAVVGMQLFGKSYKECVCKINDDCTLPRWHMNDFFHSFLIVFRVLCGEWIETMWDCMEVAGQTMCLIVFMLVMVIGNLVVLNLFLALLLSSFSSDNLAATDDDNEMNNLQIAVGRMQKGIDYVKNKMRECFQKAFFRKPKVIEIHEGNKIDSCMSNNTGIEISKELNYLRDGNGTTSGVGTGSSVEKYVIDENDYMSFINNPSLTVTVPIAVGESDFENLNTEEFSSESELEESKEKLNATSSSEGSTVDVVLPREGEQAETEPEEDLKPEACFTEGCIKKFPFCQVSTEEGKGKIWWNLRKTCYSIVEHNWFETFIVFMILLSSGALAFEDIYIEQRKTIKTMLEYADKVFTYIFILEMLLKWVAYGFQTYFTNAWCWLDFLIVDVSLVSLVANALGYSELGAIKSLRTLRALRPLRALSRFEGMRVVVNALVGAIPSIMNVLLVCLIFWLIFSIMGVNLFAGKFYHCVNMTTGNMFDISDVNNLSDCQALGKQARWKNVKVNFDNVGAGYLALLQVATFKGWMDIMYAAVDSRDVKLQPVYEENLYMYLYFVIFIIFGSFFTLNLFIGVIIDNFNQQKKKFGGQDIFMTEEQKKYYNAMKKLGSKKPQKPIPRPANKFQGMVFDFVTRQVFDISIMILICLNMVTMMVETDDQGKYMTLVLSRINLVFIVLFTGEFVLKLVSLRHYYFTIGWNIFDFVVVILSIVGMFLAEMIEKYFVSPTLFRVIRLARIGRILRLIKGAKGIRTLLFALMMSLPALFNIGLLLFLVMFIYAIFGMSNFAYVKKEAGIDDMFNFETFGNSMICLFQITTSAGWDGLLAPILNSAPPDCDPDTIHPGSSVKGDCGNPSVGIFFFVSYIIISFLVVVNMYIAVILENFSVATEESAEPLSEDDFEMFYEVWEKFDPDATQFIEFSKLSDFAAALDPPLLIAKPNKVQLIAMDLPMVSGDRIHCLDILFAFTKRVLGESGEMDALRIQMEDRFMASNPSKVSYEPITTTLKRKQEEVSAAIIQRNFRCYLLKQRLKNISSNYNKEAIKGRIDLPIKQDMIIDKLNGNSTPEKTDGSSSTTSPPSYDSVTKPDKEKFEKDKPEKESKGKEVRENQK

Molecule `CC[C@H](C)[C@@H]1NC(=O)[C@@H]2CSSC[C@@H]3NC(=O)[C@H](C(C)C)NC(=O)[C@H](CC(C)C)NC(=O)[C@H](CC(N)=O)NC(=O)[C@@H]4CCCN4C(=O)[C@H](CCCNC(=N)N)NC(=O)[C@H](CSSC[C@H](NC(=O)[C@@H](N)CC(=O)O)C(=O)N[C@@H](CC(C)C)C(=O)NCC(=O)N[C@@H](Cc4ccccc4)C(=O)N[C@@H](CCSC)C(=O)N[C@@H](CCCNC(=N)N)C(=O)N[C@@H](CCCCN)C(=O)N2)NC(=O)[C@H](CSSC[C@@H](C(=O)N[C@@H](CCCCN)C(=O)N[C@@H](Cc2ccc(O)cc2)C(=O)N[C@H](C(=O)N[C@@H](Cc2ccccc2)C(=O)N[C@@H](C)C(N)=O)C(C)C)NC(=O)[C@H](Cc2c[nH]c4ccccc24)NC(=O)[C@H](CCCCN)NC(=O)[C@H](Cc2c[nH]cn2)NC(=O)[C@H]([C@@H](C)O)NC(=O)[C@H](CCCNC(=N)N)NC(=O)[C@H](CO)NC3=O)NC(=O)[C@H](CCCCN)NC(=O)[C@H](CC(=O)O)NC(=O)[C@H](CC(N)=O)NC(=O)[C@H](CC(=O)O)NC(=O)[C@@H]2CCCN2C1=O` [compound 16] has an IC50 (hNav1.5; use-dependent, […]) of 14200 nM, an IC50 (hNav1.3; use-dependent, […]) of 260 nM and an IC50 (hNav1.7; use-dependent, […], read-out: IWQ Use Nav1.7 (μm)) of 410 nM.

`C#CCCC(=O)NCCCC[C@@H]1NC(=O)[C@H](CC(=O)O)NC(=O)[C@@H]2CCCN2C(=O)[C@H]([C@@H](C)CC)NC(=O)[C@@H]2CSSC[C@@H]3NC(=O)[C@H](C(C)C)NC(=O)[C@H](CC(C)C)NC(=O)[C@H](CC(N)=O)NC(=O)[C@@H]4CCCN4C(=O)[C@H](CCCNC(=N)N)NC(=O)[C@H](CSSC[C@H](NC(=O)[C@@H](N)CC(=O)O)C(=O)N[C@@H](CC(C)C)C(=O)NCC(=O)N[C@@H](CC)C(=O)N[C@@H](Cc4ccccc4)C(=O)N[C@@H](CCCNC(=N)N)C(=O)N[C@@H](CCCCN)C(=O)N2)NC(=O)[C@H](CSSC[C@@H](C(=O)N[C@@H](CCCCN)C(=O)N[C@@H](Cc2ccc(O)cc2)C(=O)N[C@H](C(=O)N[C@@H](Cc2ccccc2)C(N)=O)C(C)C)NC(=O)[C@H](Cc2c[nH]c4ccccc24)NC(=O)[C@H](CCCCN)NC(=O)[C@H](Cc2c[nH]cn2)NC(=O)[C@H]([C@@H](C)O)NC(=O)[C@H](CCCNC(=N)N)NC(=O)[C@H](CO)NC3=O)NC(=O)[C@H](CCCCN)NC(=O)[C@H](CC(=O)O)NC1=O` [compound 804] (H-DCLG[Abu]FRKCIPDK(Pent4ynoyl)DKCCRPNLVCSRTHKWCKYVF-NH2; disulfide 2-17, 9-23, 16-30) was tested, and the IC50 (hNav1.5; use-dependent block, hNav1.5) was > 50000 nM, the IC50 (hNav1.3; use-dependent block, hNav1.3) was 350 nM and the IC50 (hNav1.7; [1]) was 500 nM.

Molecule `CC[C@H](C)[C@@H]1NC(=O)[C@@H]2CSSC[C@@H]3NC(=O)[C@H](C(C)C)NC(=O)[C@H](CC(C)C)NC(=O)[C@H](CC(N)=O)NC(=O)[C@@H]4CCCN4C(=O)[C@H](CCCNC(=N)N)NC(=O)[C@H](CSSC[C@H](NC(=O)[C@@H](N)CC(=O)O)C(=O)N[C@@H](CC(C)C)C(=O)NCC(=O)N[C@@H](Cc4ccccc4)C(=O)N[C@@H](CCSC)C(=O)N[C@@H](CCCNC(=N)N)C(=O)N[C@@H](CCCCN)C(=O)N2)NC(=O)[C@H](CSSC[C@@H](C(=O)N[C@@H](CCCCN)C(=O)N[C@@H](Cc2c[nH]cn2)C(=O)N[C@H](C(=O)N[C@@H](Cc2ccccc2)C(N)=O)C(C)C)NC(=O)[C@H](Cc2c[nH]c4ccccc24)NC(=O)[C@H](CCCCN)NC(=O)[C@H](Cc2c[nH]cn2)NC(=O)[C@H]([C@@H](C)O)NC(=O)[C@H](CCCNC(=N)N)NC(=O)[C@H](CO)NC3=O)NC(=O)[C@H](CCCCN)NC(=O)[C@H](CC(=O)O)NC(=O)[C@H](CC(N)=O)NC(=O)[C@H](CC(=O)O)NC(=O)[C@@H]2CCCN2C1=O` [compound 380] (H-DCLGFMRKCIPDNDKCCRPNLVCSRTHKWCKHVF-NH2; disulfide 2-17, 9-23, 16-30) has an IC50 (hNav1.5; Table 25, use, […]) of 10200 nM, an IC50 (hNav1.3; Table 25, use, […]) of 750 nM and an IC50 (hNav1.7; Table 25, use, […], read-out: IWQ Use Nav1.7) of 600 nM.

In the case of `CC[C@H](C)[C@@H]1NC(=O)[C@@H]2CSSC[C@@H]3NC(=O)[C@H](C(C)C)NC(=O)[C@H](CC(C)C)NC(=O)[C@H](CC(N)=O)NC(=O)[C@@H]4CCCN4C(=O)[C@H](CCCNC(=N)N)NC(=O)[C@H](CSSC[C@H](NC(=O)[C@@H](N)CC(=O)O)C(=O)N[C@@H](CC(C)C)C(=O)NCC(=O)N[C@@H](C)C(=O)N[C@@H](CCSC)C(=O)N[C@@H](CCCNC(=N)N)C(=O)N[C@@H](CCCCN)C(=O)N2)NC(=O)[C@H](CSSC[C@@H](C(=O)N[C@@H](CCCCN)C(=O)N[C@@H](Cc2ccc(O)cc2)C(=O)N[C@H](C(=O)N[C@@H](Cc2ccccc2)C(N)=O)C(C)C)NC(=O)[C@H](Cc2c[nH]c4ccccc24)NC(=O)CNC(=O)[C@H](Cc2c[nH]cn2)NC(=O)[C@H]([C@@H](C)O)NC(=O)[C@H](CCCNC(=N)N)NC(=O)[C@H](CO)NC3=O)NC(=O)[C@H](CCCCN)NC(=O)[C@H](CC(=O)O)NC(=O)[C@H](CC(N)=O)NC(=O)[C@H](CC(=O)O)NC(=O)[C@@H]2CCCN2C1=O` [compound 715] (H-DCLGAMRKCIPDNDKCCRPNLVCSRTHGWCKYVF-NH2; disulfide 2-17, 9-23, 16-30), the IC50 (hNav1.5; use-dependent block, hNav1.5) is reported as > 50000 nM, the IC50 (hNav1.3; use-dependent block, hNav1.3) is reported as > 5000 nM and the IC50 (hNav1.7; [1]) is reported as 1000 nM.

With `CC[C@H](C)[C@@H]1NC(=O)[C@@H]2CSSC[C@@H]3NC(=O)[C@H](C(C)C)NC(=O)[C@H](CC(C)C)NC(=O)[C@H](CC(N)=O)NC(=O)[C@@H]4CCCN4C(=O)[C@H](CCCNC(=N)N)NC(=O)[C@H](CSSC[C@H](NC(=O)[C@@H](N)CC(=O)O)C(=O)N[C@@H](CC(C)C)C(=O)NCC(=O)N[C@@H](C)C(=O)N[C@@H](Cc4ccccc4)C(=O)N[C@@H](CCCNC(=N)N)C(=O)N[C@@H](CCCCN)C(=O)N2)NC(=O)[C@H](CSSC[C@@H](C(=O)N[C@@H](CCCCN)C(=O)N[C@@H](Cc2ccc(O)cc2)C(=O)N[C@H](C(=O)N[C@@H](Cc2ccccc2)C(=O)O)C(C)C)NC(=O)[C@H](Cc2c[nH]c4ccccc24)NC(=O)[C@H](CCCNC(=N)N)NC(=O)[C@H](Cc2c[nH]cn2)NC(=O)[C@H]([C@@H](C)O)NC(=O)[C@H](CCCNC(=N)N)NC(=O)[C@H](CO)NC3=O)NC(=O)[C@H](CCCCN)NC(=O)[C@H](CC(=O)O)NC(=O)[C@H]([C@@H](C)O)NC(=O)[C@H](CC(=O)O)NC(=O)[C@@H]2CCCN2C1=O` [compound 850] the IC50 (hNav1.5; use-dependent block, hNav1.5) was > 5000 nM, the IC50 (hNav1.3; use-dependent block, hNav1.3) was 1300 nM and the IC50 (hNav1.7; [1]) was > 5000 nM.

For `CC[C@H](C)[C@@H]1NC(=O)[C@@H]2CSSC[C@@H]3NC(=O)[C@H](C(C)C)NC(=O)[C@H](CC(C)C)NC(=O)[C@H](CC(N)=O)NC(=O)[C@@H]4CCCN4C(=O)[C@H](CCCNC(=N)N)NC(=O)[C@H](CSSC[C@H](NC(=O)[C@@H](N)CC(=O)O)C(=O)N[C@@H](CC(C)C)C(=O)NCC(=O)N[C@@H](C)C(=O)N[C@@H](CCSC)C(=O)N[C@@H](CCCNC(=N)N)C(=O)N[C@@H](CCCCN)C(=O)N2)NC(=O)[C@H](CSSC[C@@H](C(=O)N[C@@H](CCCCN)C(=O)N[C@@H](Cc2ccc(O)cc2)C(=O)N[C@H](C(=O)N[C@@H](Cc2ccccc2)C(N)=O)C(C)C)NC(=O)[C@H](Cc2c[nH]c4ccccc24)NC(=O)[C@H](CCCCNC(=N)N)NC(=O)[C@H](Cc2c[nH]cn2)NC(=O)[C@H]([C@@H](C)O)NC(=O)[C@H](CCCNC(=N)N)NC(=O)[C@H](CO)NC3=O)NC(=O)[C@H](CCCCN)NC(=O)[C@H](CC(=O)O)NC(=O)[C@H](CC(N)=O)NC(=O)[C@H](CC(=O)O)NC(=O)[C@@H]2CCCN2C1=O` [compound 744] (H-DCLGAMRKCIPDNDKCCRPNLVCSRTH[hArg]WCKYVF-NH2; disulfide 2-17, 9-23, 16-30), the IC50 (hNav1.5; use-dependent block, hNav1.5) was 39700 nM, the IC50 (hNav1.3; use-dependent block, hNav1.3) was 820 nM and the IC50 (hNav1.7; [1]) was 470 nM.
